# Test results: PMC5150697 (ACS Medicinal Chemistry Letters, 2016)
# Experiments:
# [1] = target: human serum albumin (HSA) (Homo sapiens, UniProt P02768); assay: Equilibrium dialysis with HSA; assay type: in vitro ADME; settings: 1 µM, 4% HSA, pH 7.4, 37 °C, 4 h, n = 3
# human α1 AGP = assay: Equilibrium dialysis with human α1 AGP; assay type: in vitro ADME; settings: 1 µM, 0.1% AGP, pH 7.4, 37 °C, 4 h, n = 3
# [2] = test system: ABCA1 induction in human whole blood; assay: Human whole blood assay; assay type: cell-based; settings: for improvement in hWBA potency compared to 5: ratio of hWBA EC50 values vs 5
# [3] = after multiple days of dosing, limited therapeutic window; cited from earlier work
# Chain of human serum albumin (HSA) (P02768 25-609): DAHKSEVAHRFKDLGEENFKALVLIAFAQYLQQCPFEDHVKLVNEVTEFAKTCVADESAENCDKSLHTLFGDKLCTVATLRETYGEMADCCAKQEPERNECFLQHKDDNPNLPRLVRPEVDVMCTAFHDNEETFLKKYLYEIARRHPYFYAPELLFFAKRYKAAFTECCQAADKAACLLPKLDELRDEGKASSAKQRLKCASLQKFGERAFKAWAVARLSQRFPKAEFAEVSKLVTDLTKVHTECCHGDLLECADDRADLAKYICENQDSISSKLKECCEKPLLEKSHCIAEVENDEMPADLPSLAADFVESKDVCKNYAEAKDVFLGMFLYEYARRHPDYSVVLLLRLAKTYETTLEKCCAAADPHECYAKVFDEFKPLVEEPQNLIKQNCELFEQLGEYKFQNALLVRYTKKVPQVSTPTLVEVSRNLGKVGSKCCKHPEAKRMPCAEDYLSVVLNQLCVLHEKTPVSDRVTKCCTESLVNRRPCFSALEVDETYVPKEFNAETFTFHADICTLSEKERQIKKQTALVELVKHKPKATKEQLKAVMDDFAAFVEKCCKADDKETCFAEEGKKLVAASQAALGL
SMILES,human α1 AGP (% bound) (human α1 AGP) [%],improvement in hWBA potency compared to 5 [2] [fold],also measured
CC(C)(O)c1cn(-c2ccc(-c3cccc(S(C)(=O)=O)c3)cc2)c(C(C)(C)c2ccccc2Cl)n1 [Example 5],99.9 ± 0.0,–,HSA (% bound) [1]: 97.2 ± 0.3%
CC(C)(O)c1cn(-c2ccc(-c3cccc(S(C)(=O)=O)c3)cc2)c(C(C)(C)c2c(Cl)cccc2Cl)n1 [Example 6],99.6 ± 0.2,3,–
CC(C)(O)c1cn(-c2ccc(-c3cc(F)c(CO)c(S(C)(=O)=O)c3)cc2)c(C(C)(C)c2ccccc2Cl)n1 [Example 10],–,20,–
CC(C)(O)c1cn(-c2ccc(-c3cc(F)c(CO)c(S(C)(=O)=O)c3)cc2)c(C(C)(C)c2c(Cl)cccc2Cl)n1 [Example 12],–,–,"improvement in hWBA potency ([2]; 2,6-dichloro analogue vs 10): 3–4 fold"
CC(C)(O)c1cn(-c2ccc(-c3cc(F)c(CO)c(S(C)(=O)=O)c3)cc2F)c(C(C)(C)c2c(Cl)cccc2Cl)n1 [Example 15],–,–,TGs and LDL-C in human trials [3]: elevated
